The values below come from patent publication US20250000850A1, “COMPOSITION USED TO PREVENT OR SUPPRESS REFEEDING SYNDROME” (OTSUKA PHARMACEUTICAL FACTORY, INC., priority 2021, published 2025).

The test is described as follows: Effect of rapamycin on blood phosphorus concentration after refeeding to protein-undernourished rats. It counts as in vivo, male Wistar rats. The settings on record: rapamycin 2 mg/mL at 0.75 mL/kg i.p., mean ± SD, n=8. On the procedure: Using male Wistar rats (7 weeks old at time of purchase; Charles River Laboratories Japan, Inc.), a group of rats fed with a purified diet having a protein content of 2.5% (referred to below as “low-protein diet”) for at least 3 weeks, and a group of rats fed with a purified diet having a protein content of 20% (referred to below as “normal diet”) for at least 3 weeks were prepared. […] Each animal had access to tap water ad libitum for at least 3 weeks. After fasting with ad libitum access to water for 24 hours, jugular vein catheterization was performed under isoflurane anesthesia, and the other end of the catheter was passed under the skin, exited from the back, and connected to a syringe containing physiological saline via a harness. The rats were then kept in individual metabolic cages with the catheter being open. Post-operatively, an antibiotic (ampicillin) was injected intramuscularly at a dose of 5 mg/100 μL/rat. After recovery from anesthesia, blood (400 μL) was collected from the catheter placed in the jugular vein, then injected into a tube containing sodium heparin, and stored on ice. The blood was promptly fractionated to obtain plasma, and the inorganic phosphorus concentration in the plasma was promptly measured using a Fuji Dry Chem Slide (produced by Fuji Film Corporation). The rats were grouped into predetermined groups using the obtained measurements and body weight data as indices.
The physiological saline was replaced with a nutrient infusion preparation or an electrolyte preparation at 5 p.m. to start administration to the animals. The nutrient infusion preparation used was Elneopa-NF No. 2 infusion (produced by Otsuka Pharmaceutical Factory Co., Ltd.). The electrolyte formulation used was an electrolyte infusion preparation composed of the electrolyte contained in Elneopa-NF No. 2 infusion. […] Immediately before administering these preparations, either a solvent (dimethyl sulfoxide, produced by Fujifilm Wako Pure Chemicals Corporation; referred to below as “DMSO”) or a solution of 2 mg/mL of rapamycin (produced by Tokyo Chemical Industry Co., Ltd.) whose side effect of inhibiting muscle synthesis was known was intraperitoneally administered by bolus at a dose of 0.75 mL/kg in each case. […]
Starting at 9 a.m. on the day after the start of administration, blood was collected from the abdominal aorta by using a syringe under isoflurane anesthesia. […] The concentration of inorganic phosphorus in the plasma was determined by an enzymatic method (Determiner L, produced by Hitachi Chemical Diagnostics Systems Co., Ltd.).

Turning to `CO[C@H]1C[C@@H]2CC[C@@H](C)[C@@](O)(O2)C(=O)C(=O)N2CCCC[C@H]2C(=O)O[C@H]([C@H](C)C[C@@H]2CC[C@@H](O)[C@H](OC)C2)CC(=O)[C@H](C)/C=C(\C)[C@@H](O)[C@@H](OC)C(=O)[C@H](C)C[C@H](C)/C=C/C=C/C=C/1C` [rapamycin], the “Plasma phosphorus concentration after administration” value stood at 6.1 ± 0.6 mg/dL (LPD (electrolyte + rapamycin): low-protein diet rats, electrolyte infusion 16 h); 4.2 ± 0.4 mg/dL (LPD (refeeding + rapamycin): low-protein diet rats, nutrient infusion 16 h); 6.4 ± 0.4 mg/dL (NPD (electrolyte + rapamycin): normal diet rats, electrolyte infusion 16 h); 4.7 ± 0.4 mg/dL (NPD (refeeding + rapamycin): normal diet rats, nutrient infusion 16 h).
